Here are results for 25 compounds from US9580416B2, “Inhibitors of Bruton's tyrosine kinase” (PHARMACYCLICS LLC, priority 2014, dated 2017).

Bounds are passed on as bounds.

Common to all, as to format: biochemical
One test deals with Lck (Homo sapiens, UniProt P06239). Kind of test: Lck kinase activity, TR-FRET assay. The settings on record: read-out: LCK (IC50). How it is done: (§1) Btk kinase activity is determined using a time-resolved fluorescence resonance energy transfer (TR-FRET) methodology. Measurements are performed in a reaction volume of 50 μL using 96-well assay plates. Kinase enzyme, inhibitor, ATP (at the Km for the kinase), and 1 […] (Biotin-AVLESEEELYSSARQ-NH2) are incubated in a reaction buffer composed of 20 mM Tris, 50 mM NaCl, MgCl2 (5-25 mM depending on the kinase), MnCl2 (0-10 mM), 1 mM DTT, 0.1 mM EDTA, 0.01% bovine serum albumin, 0.005% Tween-20, and 10% DMSO at pH 7.4 for one hour. The reaction is quenched by the addition of 1.2 equivalents of EDTA (relative to divalent cation) in 25 μL of 1× Lance buffer (Perkin-Elmer). Streptavidin-APC (Perkin-Elmer) and Eu-labeled p-Tyr100 antibody (Perkin-Elmer) in 1× Lance buffer are added in a 25 μL volume to give final concentrations of 100 nM and 2.5 nM, respectively, and the mixture is allowed to incubate for one hour. The TR-FRET signal is measured on a multimode plate reader with an excitation wavelength (λEx) of 330 nm and detection wavelengths (λEm) of 615 and 665 nm. Activity is determined by the ratio of the fluorescence at 665 nm to that at 615 nm. For each compound, enzyme activity is measured at various concentrations of compound. Negative control reactions are performed in the absence of inhibitor in replicates of six, and two no-enzyme controls are used to determine baseline fluorescence levels. Inhibition constants, Ki(app), ware obtained using the program BatchKi (Kuzmic et al. (2000), Anal. Biochem. 286:45-50). IC50s are obtained according to the equation: IC50={Ki(app)/(1+[ATP]/Km^ATP)}+[E]total/2;
Chain of Lck (P06239 whole entry, species assumed): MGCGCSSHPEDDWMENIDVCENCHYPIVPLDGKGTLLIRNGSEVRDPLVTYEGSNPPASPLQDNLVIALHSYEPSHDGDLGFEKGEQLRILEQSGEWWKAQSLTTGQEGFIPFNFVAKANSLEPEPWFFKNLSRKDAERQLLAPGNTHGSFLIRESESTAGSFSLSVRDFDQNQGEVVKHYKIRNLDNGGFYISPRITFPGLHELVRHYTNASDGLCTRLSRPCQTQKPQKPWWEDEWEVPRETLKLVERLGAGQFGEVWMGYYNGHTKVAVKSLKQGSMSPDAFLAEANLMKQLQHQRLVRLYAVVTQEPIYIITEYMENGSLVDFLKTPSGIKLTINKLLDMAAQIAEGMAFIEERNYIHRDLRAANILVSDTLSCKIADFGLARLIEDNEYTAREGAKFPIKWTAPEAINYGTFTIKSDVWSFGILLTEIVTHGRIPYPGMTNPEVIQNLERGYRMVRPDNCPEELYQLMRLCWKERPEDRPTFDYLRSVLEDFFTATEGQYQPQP
(§2) For all kinases, [ATP]=Km^ATP, [Btk]total=0.5 nM and [Lck]total=6 nM.
(In general: TR-FRET usually uses a lanthanide donor and a delayed reading to cut background.)

The next test has as its target EGFR (Homo sapiens, UniProt P00533). As to the kind of experiment: Inhibition of a panel of kinases, in vitro HotSpot kinase assay: EGFR. How it is done:
The degree of inhibition of a panel of kinases is determined using the in vitro HotSpot kinase assay (purified enzymes, ^33P-ATP, an appropriate substrate and 1 uM ATP).

A further test addresses Btk (Homo sapiens, UniProt Q06187). As to the kind of experiment: Btk kinase activity, TR-FRET assay. As to conditions: read-out: Btk (IC50). The protocol:
as §1, §2

Chain of EGFR (P00533 25-1210): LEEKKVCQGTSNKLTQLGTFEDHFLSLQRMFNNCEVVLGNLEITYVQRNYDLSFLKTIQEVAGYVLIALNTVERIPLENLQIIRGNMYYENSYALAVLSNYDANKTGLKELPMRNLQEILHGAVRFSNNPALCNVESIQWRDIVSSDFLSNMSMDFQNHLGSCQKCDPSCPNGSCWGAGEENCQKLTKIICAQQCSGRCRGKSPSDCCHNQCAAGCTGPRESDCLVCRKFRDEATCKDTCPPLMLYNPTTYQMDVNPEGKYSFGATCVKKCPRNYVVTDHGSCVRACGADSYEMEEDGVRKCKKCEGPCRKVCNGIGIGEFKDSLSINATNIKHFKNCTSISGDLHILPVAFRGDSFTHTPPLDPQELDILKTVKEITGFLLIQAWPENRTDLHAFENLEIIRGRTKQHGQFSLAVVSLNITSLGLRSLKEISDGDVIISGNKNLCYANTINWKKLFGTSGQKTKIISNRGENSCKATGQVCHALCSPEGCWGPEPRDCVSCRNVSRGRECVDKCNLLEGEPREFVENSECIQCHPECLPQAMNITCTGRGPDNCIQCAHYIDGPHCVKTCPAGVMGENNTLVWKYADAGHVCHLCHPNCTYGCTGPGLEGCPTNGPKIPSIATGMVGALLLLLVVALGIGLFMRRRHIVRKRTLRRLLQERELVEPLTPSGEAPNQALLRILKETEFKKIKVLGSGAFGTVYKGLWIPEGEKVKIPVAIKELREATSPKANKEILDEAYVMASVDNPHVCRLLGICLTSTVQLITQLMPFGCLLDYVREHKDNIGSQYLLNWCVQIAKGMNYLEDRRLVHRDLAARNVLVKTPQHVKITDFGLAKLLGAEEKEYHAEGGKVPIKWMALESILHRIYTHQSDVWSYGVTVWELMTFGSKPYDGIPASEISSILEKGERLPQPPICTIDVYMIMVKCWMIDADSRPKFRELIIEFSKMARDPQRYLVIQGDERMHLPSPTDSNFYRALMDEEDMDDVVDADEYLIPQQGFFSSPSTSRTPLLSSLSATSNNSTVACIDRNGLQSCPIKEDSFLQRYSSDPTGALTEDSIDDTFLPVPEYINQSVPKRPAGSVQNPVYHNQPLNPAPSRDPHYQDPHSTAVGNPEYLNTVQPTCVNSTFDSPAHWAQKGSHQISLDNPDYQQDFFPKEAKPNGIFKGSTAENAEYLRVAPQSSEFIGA
Chain of Btk (Q06187 whole entry): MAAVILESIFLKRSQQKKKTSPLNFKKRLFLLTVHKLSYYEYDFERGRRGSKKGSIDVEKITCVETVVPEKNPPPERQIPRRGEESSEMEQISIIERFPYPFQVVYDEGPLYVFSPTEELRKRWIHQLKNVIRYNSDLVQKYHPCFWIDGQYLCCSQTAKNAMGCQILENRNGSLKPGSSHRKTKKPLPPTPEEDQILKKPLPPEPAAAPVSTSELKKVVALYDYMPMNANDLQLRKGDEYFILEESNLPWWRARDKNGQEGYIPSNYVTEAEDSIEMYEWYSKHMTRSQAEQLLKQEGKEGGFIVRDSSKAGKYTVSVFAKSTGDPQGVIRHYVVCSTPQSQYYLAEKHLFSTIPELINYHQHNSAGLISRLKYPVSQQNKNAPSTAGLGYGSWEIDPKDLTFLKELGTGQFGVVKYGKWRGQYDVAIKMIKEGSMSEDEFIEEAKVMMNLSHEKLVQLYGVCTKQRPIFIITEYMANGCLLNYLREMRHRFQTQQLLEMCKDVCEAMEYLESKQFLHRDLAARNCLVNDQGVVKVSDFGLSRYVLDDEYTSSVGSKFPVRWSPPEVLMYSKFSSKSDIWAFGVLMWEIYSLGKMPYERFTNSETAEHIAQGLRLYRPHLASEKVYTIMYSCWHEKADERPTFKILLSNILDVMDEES

What is called IC50 is the concentration that gives 50% inhibition. As to `CCC(=O)N1CC[C@@H](Nc2n[nH]c3nccc(Oc4ccc(C(=O)Nc5nc6ccccc6[nH]5)cc4)c23)C1` [compound 69], the IC50 was 100 to 1000 nM on Lck, more than 10000 nM against EGFR and 100 to 1000 nM at Btk.
With `CN(C)C/C=C/C(=O)N1CC[C@@H](Nc2n[nH]c3nccc(Oc4cccc(Nc5ccncn5)c4)c23)C1` [compound 20, (2E)-4-(dimethylamino)-1-[(3R)-3-[(4-{3-[(pyrimidin-4-yl)amino]phenoxy}-1H-pyrazolo[3,4-b]pyridin-3-yl)amino]pyrrolidin-1-yl]but-2-en-1-one], the IC50 at Lck was more than 10000 nM; on EGFR, 1000 to 10000 nM; on Btk, more than 10000 nM.
`CCC(=O)N1CC[C@@H](Nc2n[nH]c3nccc(Nc4ccc(C(=O)Nc5cc(C(F)(F)F)ccn5)cc4)c23)C1` [compound 70]: the IC50 is 100 to 1000 nM at Lck, 1000 to 10000 nM on EGFR and less than 100 nM at Btk.
With `CN(C)C/C=C/C(=O)N1CC[C@@H](Nc2n[nH]c3nccc(Oc4ccc(Oc5ccccc5)cc4C#N)c23)C1` [compound 34, 2-[(3-{[(3R)-1-[(2E)-4-(dimethylamino)but-2-enoyl]pyrrolidin-3-yl]amino}-1H-pyrazolo[3,4-b]pyridin-4-yl)oxy]-5-phenoxybenzonitrile], the IC50 on Lck is 100 to 1000 nM; on EGFR, 1000 to 10000 nM; at Btk, less than 100 nM.
In the case of `CN(C/C=C/C(=O)N1CC[C@@H](Nc2n[nH]c3nccc(Oc4ccc(C(=O)Nc5cc(OC6CC6)ccn5)cc4)c23)C1)C1CC1` [compound 76, (R,E)-N-(4-cyclopropoxypyridin-2-yl)-4-(3-(1-(4-(cyclopropyl(methyl)amino)but-2-enoyl)pyrrolidin-3-ylamino)-1H-pyrazolo[3,4-b]pyridin-4-yloxy)benzamide], the results for the IC50 on Lck, against EGFR and at Btk were 100 to 1000 nM, 100 to 1000 nM and less than 100 nM, respectively.
In the case of `CCC(=O)N1CC[C@@H](Oc2n[nH]c3nccc(Nc4ccc(C(=O)Nc5cc(C(F)(F)F)ccn5)cc4)c23)C1` [compound 71], the IC50 at Lck was 100 to 1000 nM; against EGFR it was 1000 to 10000 nM; on Btk, less than 100 nM.
Regarding `CN(C/C=C/C(=O)N1CCCC[C@H]1CNc1n[nH]c2nccc(Oc3ccc(Oc4ccccc4)cc3)c12)C1CC1` [compound 37], the IC50 on Lck was 100 to 1000 nM; against EGFR, 1000 to 10000 nM; on Btk it was less than 100 nM.
Regarding `CCC(=O)N1CC[C@@H](Nc2n[nH]c3nccc(Oc4ccc(C(=O)Nc5ncc(C)s5)cc4)c23)C1` [compound 190], the IC50 on Lck was 1000 to 10000 nM; at EGFR, 1000 to 10000 nM; at Btk, less than 100 nM.
Consider `CN(C/C=C/C(=O)N1CC[C@@H](Nc2n[nH]c3nccc(Nc4ccc(Oc5ccccc5)cc4)c23)C1)C1CC1` [compound 23, (2E)-4-[cyclopropyl(methyl)amino]-1-[(3R)-3-({4-[(4-phenoxyphenyl)amino]-1H-pyrazolo[3,4-b]pyridin-3-yl}amino)pyrrolidin-1-yl]but-2-en-1-one], for which the IC50 at Lck is less than 100 nM; against EGFR, 100 to 1000 nM; on Btk, less than 100 nM.
As to `c1ccc(Oc2ccc(Oc3ccnc4[nH]nc(NC5CCOCC5)c34)cc2)cc1` [compound 47], the IC50 at Lck, against EGFR and at Btk was less than 100 nM in each case.
With `CN(C/C=C/C(=O)N1CC[C@@H](Nc2n[nH]c3nccc(Oc4ccc(C(=O)Nc5ncccn5)cc4)c23)C1)C1CC1` [compound 63], the IC50 on Lck is more than 10000 nM; at EGFR, more than 10000 nM; on Btk, 100 to 1000 nM.
As for `CN(C/C=C/C(=O)N1CC[C@@H](Nc2n[nH]c3nccc(Oc4ccc(OCc5cnn[nH]5)cc4)c23)C1)C1CC1` [compound 40], the half-inhibitory concentration (IC50) was 100 to 1000 nM at Lck, less than 100 nM against EGFR and less than 100 nM on Btk.
As to `CN(C/C=C/C(=O)N1CC[C@@H](Oc2n[nH]c3nccc(Oc4ccc(Oc5ccccc5)cc4)c23)C1)C1CC1` [compound 22, (2E)-4-[cyclopropyl(methyl)amino]-1-[(3R)-3-{[4-(4-phenoxyphenoxy)-1H-pyrazolo[3,4-b]pyridin-3-yl]oxy}pyrrolidin-1-yl]but-2-en-1-one], the IC50 on Lck, on EGFR and at Btk was less than 100 nM throughout.
Turning to `N#C/C(=C\C1CC1)C(=O)N1CC[C@@H](Nc2n[nH]c3nccc(Oc4ccc(Oc5ccccc5)cc4)c23)C1` [compound 18, (2E)-3-cyclopropyl-2-[(E)-(3R)-{[4-(4-phenoxyphenoxy)-1H-pyrazolo[3,4-b]pyridin-3-yl]amino}pyrrolidine-1-carbonyl]prop-2-enenitrile], the results for the IC50 at Lck, at EGFR and on Btk were 100 to 1000 nM, less than 100 nM and less than 100 nM, respectively.
Take `CCC(=O)N1CC[C@@H](Nc2n[nH]c3nccc(Oc4ccc(C(=O)Nc5nccc(=O)[nH]5)cc4)c23)C1` [compound 74, N-(6-oxo-1,6-dihydropyrimidin-2-yl)-4-[(3-{[(3R)-1-propanoylpyrrolidin-3-yl]amino}-1H-pyrazolo[3,4-b]pyridin-4-yl)oxy]benzamide]: the IC50 on Lck, on EGFR and on Btk was more than 10000 nM in each case.
Take `CCC(=O)N1CC[C@@H](Nc2n[nH]c3nccc(Oc4ccc(C(=O)Nc5nnc(C)[nH]5)cc4)c23)C1` [compound 75, N-(5-methyl-4H-1,2,4-triazol-3-yl)-4-[(3-{[(3R)-1-propanoylpyrrolidin-3-yl]amino}-1H-pyrazolo[3,4-b]pyridin-4-yl)oxy]benzamide]: the IC50 on Lck, at EGFR and on Btk was more than 10000 nM in each case.
With `N#C/C(=C\c1ccccc1)C(=O)N1CC[C@@H](Nc2n[nH]c3nccc(Oc4ccc(Oc5ccccc5)cc4)c23)C1` [compound 19, (2E)-2-[(E)-(3R)-3-{[4-(4-phenoxyphenoxy)-1H-pyrazolo[3,4-b]pyridin-3-yl]amino}pyrrolidine-1-carbonyl]-3-phenylprop-2-enenitrile], the IC50 is 100 to 1000 nM on Lck, 100 to 1000 nM against EGFR and less than 100 nM at Btk.
Take `COCCC(=O)N1CCC[C@@H](Nc2n[nH]c3nccc(Oc4ccc(C(=O)Nc5cc(C#N)ccn5)cc4)c23)C1` [compound 80, N-(4-cyanopyridin-2-yl)-4-[(3-{[(3R)-1-(3-methoxypropanoyl)piperidin-3-yl]amino}-1H-pyrazolo[3,4-b]pyridin-4-yl)oxy]benzamide]: the IC50 at Lck was 100 to 1000 nM; against EGFR, less than 100 nM; on Btk it was less than 100 nM.
For `CN1CC[C@@H](Nc2n[nH]c3nccc(Oc4ccc(Oc5ccccc5)cc4)c23)C1` [compound 45], the IC50 was less than 100 nM at Lck, 100 to 1000 nM against EGFR and less than 100 nM at Btk.
Take `CCC(=O)N1CCC[C@@H](Nc2n[nH]c3ncnc(Oc4ccc(Oc5ccccc5)cc4)c23)C1` [compound 51]: the IC50 at Lck is 100 to 1000 nM; on EGFR, less than 100 nM; at Btk it was 100 to 1000 nM.
As for `Cc1ccnc(NC(=O)c2ccc(Oc3ccnc4[nH]nc(N[C@@H]5CCCN(C(=O)C6(C)CCC6)C5)c34)cc2)c1` [compound 88, 4-[(3-{[(3R)-1-(1-methylcyclobutanecarbonyl)piperidin-3-yl]amino}-1H-pyrazolo[3,4-b]pyridin-4-yl)oxy]-N-(4-methylpyridin-2-yl)benzamide], the IC50 at Lck was 1000 to 10000 nM; against EGFR, more than 10000 nM; on Btk, less than 100 nM.
As for `CCC(=O)N1CC[C@@H](Nc2n[nH]c3nccc(Oc4ccc(C(=O)Nc5cc(C(F)(F)F)ccn5)cc4)c23)C1` [compound 66], the values for the IC50 at Lck, against EGFR and at Btk were 100 to 1000 nM, 1000 to 10000 nM and less than 100 nM, respectively.
Take `CN(C/C=C/C(=O)N1CC[C@@H](Nc2n[nH]c3nccc(Oc4ccc(C(=O)Nc5ccncn5)cc4)c23)C1)C1CC1` [compound 64]: the IC50 was more than 10000 nM on Lck, more than 10000 nM against EGFR and 100 to 1000 nM at Btk.
For the compound `N#C/C(=C\c1ncc[nH]1)C(=O)N1CC[C@@H](Nc2n[nH]c3nccc(Oc4ccc(Oc5ccccc5)cc4)c23)C1` [compound 28, (2E)-3-(1H-imidazol-2-yl)-2-[(E)-(3R)-3-{[4-(4-phenoxyphenoxy)-1H-pyrazolo[3,4-b]pyridin-3-yl]amino}pyrrolidine-1-carbonyl]prop-2-enentrile], the IC50 on Lck was 100 to 1000 nM; against EGFR, less than 100 nM; on Btk, less than 100 nM.
As for `CCCc1ccnc(NC(=O)c2ccc(Oc3ccnc4[nH]nc(N[C@@H]5CCN(C(=O)/C=C/CN(C)C6CC6)C5)c34)cc2)c1` [compound 56], the IC50 on Lck is 100 to 1000 nM; against EGFR, 1000 to 10000 nM; on Btk it was less than 100 nM.
